Data as given in the SangsterLogP compilation.

Assay: method code SF-AS, from Mayer, M.; Testa, B.; Van, H.; Bornand-Crausaz, A. (1982). Non-additivity amd intramolecular effects in the partition coefficient of omega-functionalized alkylpyridines. Eur J Med Chem, 17(5)453-459.

Structure (SMILES)	logP
NCCCCCc1ccncc1	1.4
NCCCCc1cccnc1	0.88
NCCCc1cccnc1	0.44
NC(=O)CCCCc1cccnc1	0.4
NCCc1cccnc1	0
OCCCc1ccncc1	0.58
OCCc1ccccn1	0.12
OCCc1ccncc1	0.1
NCCCc1ccccn1	0.49
NCCc1ccncc1	-0.01
NCCCCc1ccncc1	0.86
OCCCCc1cccnc1	0.92
NC(=O)CCCCc1ccncc1	0.42
OCCCCCc1cccnc1	1.41
OCCCc1ccccn1	0.58
OCCCCCc1ccncc1	1.33
OCCCc1cccnc1	0.6

Structure (SMILES)	logP
OCCCCCc1ccccn1	1.28
NC(=O)CCc1ccccn1	-0.27
NCCc1ccccn1	0.08
NCc1ccncc1	-0.38
OCc1ccccn1	0.06
NCCCCCc1cccnc1	1.41
OCCCCc1ccccn1	0.86
OCCCCc1ccncc1	0.9
OCc1cccnc1	-0.02
NC(=O)CCc1cccnc1	-0.26
NC(=O)CCc1ccncc1	-0.25
OCCc1cccnc1	0.12
NCCCc1ccccc1	1.83
NCCCc1ccncc1	0.4
NCCCCc1ccccn1	0.86
NCc1ccccn1	-0.21
NCCCCCc1ccccn1	1.32
